Experimental data as given in patent US20180221329A1, “CIS- AND TRANS-SUFFRUTICOSOL D AS THERAPEUTIC AGENTS” (MIDDLE TENNESSEE STATE UNIVERSITY, priority 2015, published 2018).

Tests used:
[1] = test system: A549 (lung carcinoma) cells; assay: Cell proliferation assay (AlamarBlue), A549; type: cell-based, human; conditions: for IC50: A549, 48 h, AlamarBlue; for Selectivity: A549 versus normal HMEC cells
Method: (§1) Cell culture. Four human cancer cell lines including A549 (lung carcinoma), BT20 (estrogen receptor-negative human breast adenocarcinoma), MCF-7 (estrogen receptor-positive human breast adenocarcinoma) and U2OS (human osteosarcoma) were purchased from American Type Culture Collection (ATCC). An A549 cell line that stably expresses Green Fluorescent Protein (GFP) was purchased from Cell BioLabs Inc. (San Diego, Calif., USA). A549, A549-GFP and BT20 cells were cultured in RPMI 1640 media (Sigma-Aldrich, St. Louis, Mo., USA), MCF7 cells were cultured in DMEM medium (ATCC, Manassas, Va., USA), and U20S cells were cultured in McCoy's 5A medium (ATCC, Manassas, Va., USA). As a control, HMEC cells (primary human mammary breast epithelial cells) were purchased from ATCC and cultured in McCoy's 5A medium. All medium contained 10% FBS (Sigma-Aldrich, St. Louis, Mo., USA) and 1% streptomycin and penicillin (Sigma-Aldrich, St. Louis, Mo., USA). These cells were incubated in a humid environment with 5% CO2 at 37° C.
(§2) Cell proliferation assay. The resazurin reduction reagent AlamarBlue (Invitrogen, Frederick, Md., USA) was used to evaluate the cytotoxicity of the compounds. Cells were plated at a density of 5×10^3 cells per well in 96-well microplates with 100 μl culture medium, and were allowed to attach for 16 h prior to treatment. Next, all the medium was replaced with medium containing the cis- or trans-suffruticosol D compounds at seven different concentrations: 320, 100, 32, 10, 3.2, 1.0, and 0.32 μM. The cells were placed in an incubator for 48 h at 37° C. Cells that were treated with medium-containing vehicle (1% DMSO) only serve as negative control. Subsequently, AlamarBlue solution was added to the medium and the cells were incubated in the CO2 incubator for 1 h. The fluorescent intensity change of the dye was measured at Ex 555 nm and Em 590 nm using a plate reader (Molecular Devices, Sunnyvale, Calif., USA). The cytotoxicity was examined by determining by IC50, the dose that inhibited 50% of cell growth, using GraphPad Prism software (GraphPad Software, La Jolla, Calif., USA).
(§3) Table 1. IC50 values of cis- and trans-suffruticosol D in selected cancer and normal cell lines. Cells were treated with various concentrations of cis- or trans-suffruticosol D for 48 h, and the viability of cells was evaluated with AlamarBlue dye.

[2] = test system: BT20 (estrogen receptor-negative human breast adenocarcinoma) cells; assay: Cell proliferation assay (AlamarBlue), BT20; type: cell-based; conditions: for IC50: BT20, 48 h, AlamarBlue; for Selectivity: BT20 versus normal HMEC cells
Method: as §1, §2, §3

A549-GFP cells = assay: Cell motility assay (fluorescent bead track area); type: cell-based, human; conditions: 18 h, medium with 10% FBS
Method: FIGS. 4A and 4B depict cell motility changes induced by cis- and trans-suffruticosol D in A549 cells. A549-GFP cells were seeded in 96-well plate with a monolayer of fluorescent beads. After treatment with cis- or trans-suffruticosol D for 18 h, individual cell movement was evaluated by measuring the fluorescent track area. Cells treated with serum free medium served as a negative control and cells treated with medium containing 10% serum served as a positive control.
Cell motility assay. A 96-well collagen plate (Corning, N.Y., USA) was coated with blue fluorescent beads (Life Technologies, Eugene, Oreg., USA) as follows. The beads were centrifuged for 1 min at 14,000 g and washed twice with PBS, then 75 μl beads were added to each well of the 96-well collagen plate and incubated for 1 h at 37° C. The cells were seeded on the lawn of fluorescent beads and the sizes of the tracks generated by migrating cells were measured. After the plate was washed 5 times with PBS, A549-GFP cells were seeded at 500 cells/well in the coated plate and incubated for 1 h at 37° C. Subsequently the cells were treated with different concentrations of cis- or trans-suffruticosol D in medium containing 10% FBS for 18 h. Cells treated with serum-free medium serve as the negative control and cells treated with medium containing 10% FBS serve as the positive control. Cell tracks were imaged using an Arrayscan VTI HCS reader (Thermo Scientific, Waltham, Mass., USA) and the data was analyzed by vHCS Scan software. The mean of the full track area per cell for the test compound and the controls was calculated.

A549 cells = assay: Multi-parameter cytotoxicity assay (HCS); type: cell-based, human; conditions: 24 h; for mitochondrial membrane potential: all tested concentrations
Method: FIGS. 5A-D depict multi-parameter analysis of cytotoxicity induced by cis- and trans-suffruticosol D in A549 cells. A549 cells were treated with various concentrations of cis- or trans-suffruticosol D for 24 h, then stained with three dyes simultaneously (Hoechst, cell permeability dye, and mitochondrial membrane potential dye). Cells treated with vehicle only served as a negative control and cells treated with 10 μM valinomycin served as a positive control.
Multi-parameter cytotoxicity assay. HCS analysis was used to measure nuclear morphology, cell membrane permeability, and mitochondrial membrane potential changes, the three parameters associated with cytotoxicity. A549 cells were treated with different concentrations of cis- or trans-suffruticosol D for 24 h. The cells were then fixed and stained with a warm solution containing Hoechst dye, Membrane Permeability Dye, and Mitochondrial membrane Potential Dye (Thermo Scientific, Waltham, Mass., USA). Cells were imaged using an Arrayscan VTI HCS reader (Thermo Scientific, Waltham, Mass., USA). Data on nuclear size, cell permeability, and mitochondria membrane potential were collected and analyzed using vHCS Scan software.

[3] = test system: apoptotic proteins in A549 cells; assay: Apoptosis antibody array; type: cell-based, human; conditions: 50 μM, 6 h

Oc1ccc(C=Cc2c3c(cc4c2[C@@H](c2cc(O)cc(O)c2)[C@H](c2ccc(O)cc2)O4)O[C@H](c2ccc(O)cc2)[C@@H]3c2cc(O)cc(O)c2)cc1 [cis-suffruticosol D]
IC50 ([1]; listed as cis-SD): 17.1 ± 1 µM
Selectivity ([1]; listed as cis-SD): 15.8
IC50 ([2]; listed as cis-SD): 13.4 ± 2.5 µM
Selectivity ([2]; listed as cis-SD): 20
decrease of A549 cell motility (A549-GFP cells; 10 μM): 42.3%
decrease of A549 cell motility (A549-GFP cells; 32 μM): 42.0%
decrease of A549 cell motility (A549-GFP cells; 100 μM): 50.4%
mitochondrial membrane potential (A549 cells): significant decrease
cell membrane permeability (A549 cells; various concentrations): no significant change
nuclear size (A549 cells; various concentrations): no significant change
BH3 interacting-domain death agonist (BID) expression [3]: up-regulated
cyclin-dependent kinase inhibitor 1B (p27Kip1) expression [3]: up-regulated
death receptor 6 (DR6) expression [3]: up-regulated

Oc1ccc(/C=C/c2c3c(cc4c2[C@@H](c2cc(O)cc(O)c2)[C@H](c2ccc(O)cc2)O4)O[C@H](c2ccc(O)cc2)[C@@H]3c2cc(O)cc(O)c2)cc1 [trans-suffruticosol D]
Selectivity ([1]; listed as trans-SD): 12.3
IC50 ([1]; Homo sapiens): 11.9 ± 1.2 µM
Selectivity ([2]; listed as trans-SD): 14.8
IC50 ([2]; Homo sapiens, BT-20, 48 h): 9.9 ± 3.8 µM
decrease of A549 cell motility (A549-GFP cells; 10 μM): 40.7%
decrease of A549 cell motility (A549-GFP cells; 32 μM): 40.7%
decrease of A549 cell motility (A549-GFP cells; 100 μM): 54.9%
cell membrane permeability (A549 cells; 100 μM): increased cell membrane permeability
nuclear size (A549 cells; 100 μM): nuclei shrinkage
mitochondrial membrane potential (A549 cells): significant decrease
BH3 interacting-domain death agonist (BID) expression [3]: up-regulated
cyclin-dependent kinase inhibitor 1B (p27Kip1) expression [3]: up-regulated
death receptor 6 (DR6) expression [3]: up-regulated
